Assays:
Olfr2 [1] = target: T1, Olfr2 (Mus musculus, UniProt Q9QWU6); assay: IL-1β production in LPS-primed mouse BMDMs; assay type: cell-based; design: Olfr2 expression was confirmed at the protein level on F4/80^+ vascular macrophages; from tissue; host or cells: explanted whole aortas, digested aortic cell suspensions (F4/80+ vascular macrophages) and blood monocytes of Apoe-/- C57BL/6J mice; living Apoe-/- mice for the in vivo study
T1 sequence (Q9QWU6 1-327): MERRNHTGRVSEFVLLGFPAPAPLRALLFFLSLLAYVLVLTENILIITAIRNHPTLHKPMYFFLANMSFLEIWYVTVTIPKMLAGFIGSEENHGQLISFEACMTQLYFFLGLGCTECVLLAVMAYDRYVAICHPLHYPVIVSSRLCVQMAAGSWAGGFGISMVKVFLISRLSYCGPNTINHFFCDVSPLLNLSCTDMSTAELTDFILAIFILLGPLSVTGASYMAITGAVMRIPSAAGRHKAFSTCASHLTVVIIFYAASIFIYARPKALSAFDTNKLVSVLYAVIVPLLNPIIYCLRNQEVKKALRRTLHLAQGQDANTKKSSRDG
Experimental: Macrophages are known producers of one of the most prominent cytokines driving atherosclerosis, IL-1β^29. IL-1β production and secretion requires assembly of the inflammasome, a cytoplasmic complex containing several proteins that serves as a molecular platform for activation of the cysteine protease caspase^30,31. To test whether octanal induced IL-1β secretion in macrophages, BMDMs were primed with low-dose LPS (50 ng/mL) for 18 h followed by exposure to octanal alone or together with citral. IL-1β protein in the supernatant was quantified by a cytokine bead array. Data are presented as mean±SEM. *p<0.05, **p<0.01, ***p<0.005, ****p<0.001. p calculated by One-Way ANOVA test, Tukey's multiple comparisons test and unpaired t-test.
Mouse BMDMs and human MDMs were pretreated with LPS (50 ng/mL) or left untreated for 18 h at 37° C. and 5% CO2. […]
Supernatants of stimulated cells and aortic tissue were analyzed by BD CBA Flex Sets (BD Biosciences) for mouse TNFα, CCL2, CCL4, IL-1β, or human TNF, IL6, and IL-1β according to the manufacturer's protocol. Samples were analyzed with LSR-II (BD Biosciences). Data was acquired with FACSDiva software (BD Biosciences) and analyzed with FCAP array software 3.0 (BD Biosciences).

OR6A2 = OR6A2 expression in hMDMs (real time PCR, flow cytometry); assay type: cell-based, human; settings: LPS + octanal
Experimental: (§1) BMDMs and hMDMs were incubated in culture media for 12 h at 37° C. and 5% CO2 with Oct, (10 μM), LPS (500 ng/mL) alone or combined with Oct (LPS+Oct) and DMSO (0.1%) as a control and lysed with Qiazol (500 μL; Qiagen) Similarly, whole aortas incubated as previously described were transferred into Qiazol (500 μl; Qiagen) and digested with gentleMACS™ Dissociator (Miltenyi).
(§2) Total RNA was quantified using a nanodrop spectrophotometer (Peqlab) and 500 ng were reverse transcribed into cDNA using Omniscript reverse transcriptase (Qiagen). Real time PCR reactions were performed according to the RT^2 SYBR green gene expression assay protocol (Qiagen). RT2 SYBR Green qPCR master mix and premade RT^2 qPCR Primer Assays for mouse Olfr2, Rtp1, Rtp2, Ccl2, Ccl4, Tnf, Nos2 and Gapdh were used. Similarly, real time PCR analysis of hMDMs samples was performed following the RT^2 SYBR green gene expression assay protocol (Qiagen), applying RT^2 SYBR Green qPCR master mix and premade RT^2 qPCR Primer Assays for human OR6A2, TNF, IL-6, NOS2 and GAPDH. The results were calculated applying the 2^−ΔΔCT method^32 using Gapdh/GAPDH as housekeeping gene.
BMDMs, hMDMs, mouse blood leukocytes and whole mount aortas were incubated in culture medium with Oct, (10 μM), LPS, (500 ng/mL) alone or combined (LPS+Oct) for 12h at 37° C. and 5% CO2. […]

Olfr2 [2] = assay: Olfr2, Rtp1 and Rtp2 mRNA expression (qPCR) in explanted aortas; assay type: cell-based, mouse
Excerpt: Next, Olfr2 expression in aortas harvested from western-type diet (WD)-fed male mice (n=5) was investigated^18. Briefly, whole aortas were harvested from Apoe^−/− mice fed western-like diet (WD) for 2 weeks and treated as described above. Relative expression of Olfr2 quantified by real time PCR analysis of Olfr2 expression normalized to expression of Gapdh and untreated control.
In addition, Rtp1 and Rtp2 expression in aortas harvested from Apoe−/− mice was investigated. Briefly, explanted aortas of Apoe−/− mice treated for 12h with Oct (10 μM) and/or lipopolysaccharide (LPS, 500 ng/mL). Rtp1 and Rtp2 expression was assessed by qPCR as described above. N=3 independent experiments (relative expression calculated by 2^−ΔΔCt method). Data are presented as means±SEM. *p<0.05, **p<0.01, ***p<0.005, ****p<0.001. p calculated by One-Way ANOVA test, Tukey's multiple comparisons test.
as §1, §2

Structure (SMILES) | release of IL-1β into the supernatant, mouse BMDMs (Olfr2 [1]; LPS 50 ng/mL 18 h priming, then octanal 10 μM) | OR6A2 mRNA expression in hMDMs (OR6A2) | aortic Olfr2, Rtp1 and Rtp2 mRNA (Olfr2 [2]; LPS 500 ng/mL + octanal 10 μM ex vivo, 12 h) | Olfr2 expression (qRT-PCR) (Olfr2 [2]; LPS + octanal) | Olfr2 expression (qRT-PCR) (Olfr2 [2]; octanal alone) | octanal-induced IL-1β release, mouse BMDMs (Olfr2 [1]; LPS priming, octanal 10 μM + citral 100 μM) | Olfr2 mRNA expression (Olfr2 [2]; citral, data not shown)
CCCCCCCC=O [octanal] | strongly increased | further augmented | significantly enhanced | further increased | no effect |  | 
CC(C)=CCCC(C)=CC=O [citral] |  |  |  |  |  | inhibited | did not affect

From patent US20210145768A1, “MODULATING IMMUNE RESPONSE VIA TARGETING OF OLFACTORY RECEPTOR ACTIVITY” (La Jolla Institute for Allergy and Immunology, priority 2018, published 2021)
